This is an account of results in patent US9233979B2, “Compounds that are ERK inhibitors” (Merck Sharp & Dohme Corp., priority 2012, dated 2016).

Each structure is given as a SMILES string.

The test has as its target phosphorylated active hERK2 enzyme (Homo sapiens (Human), UniProt P28482). Briefly: Active Human ERK2 (hERK2) Activity Assay (IMAP-FP). Conditions: Table 6, 0.5 nM hERK2, 30 μM ATP, 10 point titration, read-out: AERK2 IC50. The format is biochemical. The method, boiled down: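 IMAP detection beads in buffer with 24 mM NaCl stopped the reaction, and fluorescence polarization was read after 60 min binding.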

Chain of phosphorylated active hERK2 enzyme (P28482 whole entry): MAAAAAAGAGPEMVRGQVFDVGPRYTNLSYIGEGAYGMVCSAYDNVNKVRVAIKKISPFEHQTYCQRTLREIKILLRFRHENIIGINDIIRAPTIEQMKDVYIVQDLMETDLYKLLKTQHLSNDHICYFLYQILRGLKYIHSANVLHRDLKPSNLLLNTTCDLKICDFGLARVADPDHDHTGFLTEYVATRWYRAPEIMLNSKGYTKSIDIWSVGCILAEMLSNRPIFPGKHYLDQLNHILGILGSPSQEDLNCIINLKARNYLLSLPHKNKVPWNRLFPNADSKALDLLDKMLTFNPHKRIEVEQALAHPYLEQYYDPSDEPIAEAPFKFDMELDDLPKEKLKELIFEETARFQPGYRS

As for `COC(C)(C)C(NC(=O)Nc1cc2[nH]nc(N3C[C@@H](C)O[C@@H](C)C3)c2cn1)c1ccc(F)cc1` (stereo partly drawn) [Example 432, 1-{3-[(2R,6S)-2,6-dimethylmorpholin-4-yl]-1H-pyrazolo[4,3-c]-pyridin-6-yl}-3-[1-(4-fluorophenyl)-2-methoxy-2-methylpropyl]urea], the half-inhibitory concentration (IC50) (commonly the point on the concentration scale where inhibition reaches its midpoint) is 2.4 nM. In the case of `CC(C)(O)[C@@H](NC(=O)Nc1cc2[nH]nc(N3CCOCC3)c2cn1)c1ccccc1` [Example 433, 1-[(1S)-2-hydroxy-2-methyl-1-phenylpropyl]-3-(3-morpholin-4-yl-1H-pyrazolo[4,3-c]-pyridin-6-yl)urea] it was 0.5 nM; in that of `CC(Nc1n[nH]c2cc(NC(=O)N[C@@H](c3ccccc3)C(C)(C)O)ncc12)C(F)(F)F` (stereo partly drawn) [Example 434, 1-[(1S)-2-hydroxy-2-methyl-1-phenylpropyl]-3-{3-[(2,2,2-trifluoro-1-methylethyl)-amino]-1H-pyrazolo[4,3-c]-pyridin-6-yl}urea], 0.7 nM; in that of `C[C@@H]1CN(c2n[nH]c3cc(NC(=O)NC(c4ccc(F)cc4)C(C)(C)O)ncc23)C[C@H](C)O1` (stereo partly drawn) [Example 435, 1-{3-[(2R,6S)-2,6-dimethylmorpholin-4-yl]-1H-pyrazolo[4,3-c]-pyridin-6-yl}-3-[1-(4-fluorophenyl)-2-hydroxy-2-methylpropyl]urea], 1.6 nM.

`C[C@@H]1CN(c2n[nH]c3cc(NC(=O)N[C@@H](c4ccccc4)C(C)(C)O)ncc23)C[C@H](C)O1` [Example 436, 1-{3-[(2R,6S)-2,6-dimethylmorpholin-4-yl]-1H-pyrazolo[4,3-c]-pyridin-6-yl}-3-[(1S)-2-hydroxy-2-methyl-1-phenylpropyl]urea]: the IC50 was found to be 0.8 nM. Regarding `O=C(Nc1cc2[nH]nc(N3CCOCC3)c2cn1)N[C@H](CO)c1ccccc1` [Example 437, 1-[(1S)-2-hydroxy-1-phenylethyl]-3-(3-morpholin-4-yl-1H-pyrazolo[4,3-c]pyridin-6-yl)urea], the concentration for half-maximal inhibition (IC50) amounted to 0.4 nM.

For the molecule `CC(C)(O)[C@@H](NC(=O)Nc1cc2[nH]nc(N3CCOCC3)c2cn1)c1ccc(F)cc1` [Example 438, 1-[(1S)-1-(4-fluorophenyl)-2-hydroxy-2-methylpropyl]-3-(3-morpholin-4-yl-1H-pyrazolo[4,3-c]-pyridin-6-yl)urea], the IC50 was found to be 0.4 nM. Regarding `O=C(Nc1cc2[nH]nc(N3CC4CCC(C3)O4)c2cn1)N[C@H](CO)c1ccccc1` [Example 439, 1-[(1S)-2-hydroxy-1-phenylethyl]-3-[3-(8-oxa-3-azabicyclo[3.2.1]-oct-3-yl)-1H-pyrazolo[4,3-c]-pyridin-6-yl]urea], the IC50 was found to be 1.9 nM. As to `O=C(Nc1cc2[nH]nc(N3CCOCC3)c2cn1)N[C@H](COC(F)F)c1ccccc1` [Example 440, 1-[(1S)-2-(difluoromethoxy)-1-phenylethyl]-3-(3-morpholin-4-yl-1H-pyrazolo[4,3-c]pyridin-6-yl)urea], the IC50 amounted to 0.4 nM. `COC[C@@H](NC(=O)Nc1cc2[nH]nc(N3CC4CCC(C3)O4)c2cn1)c1ccccc1` [Example 441, 1-[(1S)-2-methoxy-1-phenylethyl]-3-[3-(8-oxa-3-azabicyclo[3.2.1]-oct-3-yl)-1H-pyrazolo[4,3-c]-pyridin-6-yl]urea]: the 50% inhibitory concentration (IC50) is 0.9 nM. Turning to `CC(C)(O)[C@@H](NC(=O)Nc1cc2[nH]nc(N3CC4CCC(C3)O4)c2cn1)c1ccccc1` [Example 442, 1-[(1S)-2-hydroxy-2-methyl-1-phenylpropyl]-3-[3-(8-oxa-3-azabicyclo[3.2.1]-oct-3-yl)-1H-pyrazolo[4,3-c]-pyridin-6-yl]urea], the IC50 came out at 0.5 nM.

`CC(C)(O)[C@@H](NC(=O)Nc1cc2[nH]nc(N)c2cn1)c1ccc(F)cc1` [Example 443, 1-(3-amino-1H-pyrazolo[4,3-c]-pyridin-6-yl)-3-[(1S)-1-(4-fluorophenyl)-2-hydroxy-2-methylpropyl]urea]: the half-inhibitory concentration (IC50) came out at 0.7 nM.

Turning to `C[C@@H](NC(=O)Nc1cc2[nH]nc(N)c2c(Cl)n1)c1ccccc1` [Example 444, 1-(3-amino-4-chloro-1H-pyrazolo[4,3-c]-pyridin-6-yl)-3-[(1R)-1-phenylethyl]urea], the half-maximal inhibitory concentration (IC50) stood at 1.2 nM. In the case of `CC(C)(O)[C@@H](NC(=O)Nc1cc2[nH]nc(N3CC4CC3CO4)c2cn1)c1ccc(F)cc1` (stereo partly drawn) [Example 446, 1-[(1S)-1-(4-fluorophenyl)-2-hydroxy-2-methylpropyl]-3-[3-(2-oxa-5-azabicyclo[2.2.1]hept-5-yl)-1H-pyrazolo[4,3-c]pyridin-6-yl]urea] it was 0.8 nM. For the molecule `CC(C)(O)[C@@H](NC(=O)Nc1cc2[nH]nc(N3CC4CC3CO4)c2cn1)c1ccccc1` (stereo partly drawn) [Example 447, 1-[(1S)-2-hydroxy-2-methyl-1-phenylpropyl]-3-[3-(2-oxa-5-azabicyclo[2.2.1]-hept-5-yl)-1H-pyrazolo[4,3-c]-pyridin-6-yl]urea], the IC50 was found to be 1.5 nM.

Consider `CCNc1n[nH]c2cc(NC(=O)N[C@@H](c3ccc(F)cc3)C(C)(C)O)ncc12` [Example 448, 1-[3-(ethylamino)-1H-pyrazolo[4,3-c]pyridin-6-yl]-3-[(1S)-1-(4-fluorophenyl)-2-hydroxy-2-methylpropyl]urea], for which the 50% inhibitory concentration (IC50) amounted to 0.4 nM.

`C[C@@H](NC(=O)Nc1cc2[nH]nc(N3CC4CC3CO4)c2cn1)c1ccccc1` (stereo partly drawn) [Example 449, 1-[3-(2-oxa-5-azabicyclo[2.2.1]-hept-5-yl)-1H-pyrazolo[4,3-c]-pyridin-6-yl]-3-[(1R)-1-phenylethyl]urea]: the IC50 was 6 nM. For the molecule `O=C(Nc1cc2[nH]nc(N3CC4CC3CO4)c2cn1)N[C@H](CO)c1ccccc1` (stereo partly drawn) [Example 450, 1-[(1S)-2-hydroxy-1-phenylethyl]-3-[3-(2-oxa-5-azabicyclo[2.2.1]-hept-5-yl)-1H-pyrazolo[4,3-c]-pyridin-6-yl]urea], the IC50 was 4.3 nM. `COC[C@@H](NC(=O)Nc1cc2[nH]nc(N3CC4CC3CO4)c2cn1)c1ccccc1` (stereo partly drawn) [Example 451, 1-[(1S)-2-methoxy-1-phenylethyl]-3-[3-(2-oxa-5-azabicyclo[2.2.1]-hept-5-yl)-1H-pyrazolo[4,3-c]-pyridin-6-yl]urea]: the IC50 is 3 nM.

As for `COc1nc(NC(=O)N[C@H](C)c2ccccc2)cc2[nH]nc(N)c12` [Example 452, 1-(3-amino-4-methoxy-1H-pyrazolo[4,3-c]-pyridin-6-yl)-3-[(1R)-1-phenylethyl]urea], the half-inhibitory concentration (IC50) stood at 0.7 nM. Turning to `C[C@@H](NC(=O)Nc1cc2[nH]nc(N3CC4CCC(C3)O4)c2cn1)c1ccccc1` [Example 453, 1-[3-(8-oxa-3-azabicyclo[3.2.1]-oct-3-yl)-1H-pyrazolo[4,3-c]-pyridin-6-yl]-3-[(1R)-1-phenylethyl]urea], the half-inhibitory concentration (IC50) is 3.4 nM. Turning to `CCNc1n[nH]c2cc(NC(=O)N[C@H](C)c3ccccc3)nc(Cl)c12` [Example 454, 1-[4-chloro-3-(ethylamino)-1H-pyrazolo[4,3-c]pyridin-6-yl]-3-[(1R)-1-phenylethyl]urea], the 50% inhibitory concentration (IC50) was found to be 11.8 nM. In the case of `CC(C)(O)[C@@H](NC(=O)Nc1cc2[nH]nc(NC(=O)N3C[C@H]4COC[C@H]4C3)c2cn1)c1ccc(F)cc1` [Example 457, (3aR,6aS)-N-(6-(3-((S)-1-(4-fluorophenyl)-2-hydroxy-2-methylpropyl)-ureido)-1H-pyrazolo[4,3-c]-pyridin-3-yl)-tetrahydro-1H-furo[3,4-c]pyrrole-5(3H)-carboxamide] it was 3.7 nM; in that of `C[C@@H](NC(=O)Nc1cc2[nH]nc(NC(=O)N3C[C@H]4COC[C@H]4C3)c2cn1)c1ccc(F)cc1` [Example 458, (3aR,6aS)-N-(6-(3-((R)-1-(4-fluorophenyl)ethyl)ureido)-1H-pyrazolo[4,3-c]pyridin-3-yl)tetrahydro-1H-furo[3,4-c]pyrrole-5(3H)-carboxamide], 14.3 nM.
